Literature values, collected in patent US20260041677A1, “COMPOSITIONS AND METHODS FOR TREATING ADENOID CYSTIC CARCINOMA” (ELEVAR THERAPEUTICS, INC., priority 2022, published 2026).

Tested on: R/M ACC
Details: RECIST V1.1; 500 mg QD; 68 patients, head and neck R/M ACC; cited from earlier work

N#CC1(c2ccc(NC(=O)c3cccnc3NCc3ccncc3)cc2)CCCC1 [Rivoceranib, N-[4-(1-cyanocyclopentyl)phenyl]-2-{[(pyridin-4-yl)methyl]amino}pyridine-3-carboxamide]
6-month PFS: 92.3%
ORR: 46.2%
median DOR: 17.7 months
